Source: US8017612B2, “Piperazine compound and use thereof as a HCV polymerase inhibitor” (priority 2006, dated 2011)
Counter-ions that a name gives are not always drawn.

Legend:
[1] = molecular target: T1, HCV polymerase (NS5B) type 1b (Hepatitis C virus genotype 1b, UniProt P26663); test: Assay of enzyme (HCV polymerase) inhibitory activity, type 1b enzyme; format: biochemical, HCV BK strain (type 1b)
T1 construct: a region encoding NS5B (J Virol 1991 March, 65(3), 1105-13, 544 amino acids after deletion of 47 amino acids on the C-terminal); 6xHis (C); made in house; host or cells: Escherichia coli
Outline: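 Rxn: NS5B 1b (BK, ΔC47, His6) 0.5 μg/ml; substrate RNA 5 μg/ml; ATP/GTP/CTP 50 μM, UTP 2 μM + [5,6-3H]UTP; 20 mM Tris pH 7.5, 5 mM MgCl2, 50 mM NaCl, 1 mM EDTA/DTT. 25 °C, 60 min. Stop with TCA/pyrophosphate, filter, scintillation count; IC50 vs. untreated.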

[2] = molecular target: T2, HCV polymerase (NS5B) type 1a (Hepatitis C virus genotype 1a, UniProt P26664); test: Assay of enzyme (HCV polymerase) inhibitory activity, type 1a enzyme; format: biochemical, HCV type 1a (cloned from the blood of patients)
T2 construct: made in house; host or cells: Escherichia coli (by the 'similar method' of the 1b enzyme)
Outline: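 NS5B Δ47 C-term His6 (type 1a, 1.5 μg/ml); substrate RNA 5 μg/ml; ATP/GTP/CTP 50 μM, UTP 2 μM + [5,6-3H]UTP; Tris pH 7.5, MgCl2 5 mM; 25° C, 60 min. TCA/pyrophosphate stop, GF/B filter, scintillation. IC50 vs no-compound control.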

[3] = HCV polymerase inhibitory activity (IC50), 1b, type 1b enzyme 0.5 μg/ml, 25° C., 60 min
[4] = HCV polymerase inhibitory activity (IC50), 1a, type 1a enzyme 1.5 μg/ml, 25° C., 60 min
[5] = HCV polymerase inhibitory activity IC50, 1b, type 1b enzyme
[6] = HCV polymerase inhibitory activity IC50, 1a, type 1a enzyme

`CC(C)c1ccc(CNC(=O)[C@H]2CN(C(=O)Nc3ccnc(C(=O)O)c3)CCN2S(=O)(=O)c2ccc(C(F)(F)F)cc2)cc1` [Example 314, 4-{[(R)-3-(4-isopropyl-benzylcarbamoyl)-4-(4-trifluoromethyl-benzenesulfonyl)-piperazine-1-carbonyl]-amino}-pyridine-2-carboxylic acid hydrochloride] gave an IC50 [1, 3] of 0.1 to 1 µM and an IC50 [2, 4] of 0.1 to 1 µM.
In the case of `COc1ccc(S(=O)(=O)N2CCN(C(C)=O)CC2C(=O)NCc2ccc(C(F)(F)F)cc2)cc1OC` (stereo not drawn) [Example 136, 4-acetyl-1-(3,4-dimethoxy-benzenesulfonyl)-piperazine-2-carboxylic acid 4-trifluoromethyl-benzylamide], the IC50 [1, 3] is reported as greater than 1 µM and the IC50 [2, 4] is reported as greater than 1 µM.
`O=C(NCc1ccc(OC(F)(F)F)cc1)[C@H]1CN(c2nc3nc(CC4CC4)ncc3s2)CCN1S(=O)(=O)c1ccc(C(F)(F)F)cc1` [Example 1012, (R)-4-(5-cyclopropylmethyl-thiazolo[4,5-d]pyrimidin-2-yl)-1-(4-trifluoromethyl-benzenesulfonyl)-piperazine-2-carboxylic acid 4-trifluoromethoxy-benzylamide] showed an IC50 [1, 5] of less than 0.1 µM and an IC50 [2, 6] of less than 0.1 µM.
`O=C(O)c1cncc2sc(N3CCN(S(=O)(=O)c4ccc(OC(F)(F)F)cc4)[C@@H](C(=O)NCc4ccc(OC(F)F)c(F)c4)C3)nc12` [Example 1109, 2-[(R)-3-(4-difluoromethoxy-3-fluoro-benzylcarbamoyl)-4-(4-trifluoromethoxy-benzenesulfonyl)-piperazin-1-yl]-thiazolo[5,4-c]pyridine-7-carboxylic acid] gave an IC50 [1, 5] of less than 0.1 µM and an IC50 [2, 6] of less than 0.1 µM.
For `CC(C)(C)c1ccc(CNC(=O)[C@H]2CN(c3cnc4cnccc4n3)CCN2S(=O)(=O)c2ccc(OC(F)(F)F)cc2)cc1` [Example 689, (R)-4-pyrido[3,4-b]pyrazin-2-yl-1-(4-trifluoromethoxy-benzenesulfonyl)-piperazine-2-carboxylic acid 4-tert-butyl-benzylamide], the IC50 [1, 5] was less than 0.1 µM and the IC50 [2, 6] was less than 0.1 µM.
Work on `CC(C)c1ccc(CNC(=O)[C@H]2CN(C(=O)CCC(=O)O)CCN2S(=O)(=O)c2ccc(C(F)(F)F)cc2)cc1` [Example 187, 4-[(R)-3-(4-isopropyl-benzylcarbamoyl)-4-(4-trifluoromethyl-benzenesulfonyl)-piperazin-1-yl]-4-oxo-butyric acid] yielded an IC50 [1, 3] greater than 1 µM and an IC50 [2, 4] greater than 1 µM.
Molecule `CC(=O)N1CCN(S(=O)(=O)c2ccc(N3CCOCC3)nc2)C(C(=O)NCc2ccc(C(F)(F)F)cc2)C1` (stereo not drawn) [Example 70, 4-acetyl-1-(6-morpholin-4-yl-pyridine-3-sulfonyl)-piperazine-2-carboxylic acid 4-trifluoromethyl-benzylamide hydrochloride] has an IC50 [1, 3] greater than 1 µM and an IC50 [2, 4] greater than 1 µM.
`CCC(F)(F)c1ccc(CNC(=O)[C@H]2CN(c3cnc4nsnc4n3)CCN2S(=O)(=O)c2ccc(OC(F)(F)F)cc2)cc1` [Example 691, (R)-4-[1,2,5]thiadiazolo[3,4-b]pyrazin-5-yl-1-(4-trifluoromethoxy-benzenesulfonyl)-piperazine-2-carboxylic acid 4-(1,1-difluoro-propyl)-benzylamide] gave an IC50 [1, 5] of less than 0.1 µM and an IC50 [2, 6] of less than 0.1 µM.
`CC(=O)N1CCN(S(=O)(=O)c2ccc(C(C)C)cc2)[C@@H](C(=O)NCc2ccc(C(F)(F)F)cc2)C1` [Example 18, (R)-4-acetyl-1-(4-isopropyl-benzenesulfonyl)-piperazine-2-carboxylic acid 4-trifluoromethyl-benzylamide] showed an IC50 [1, 3] of 0.1 to 1 µM and an IC50 [2, 4] of 0.1 to 1 µM.
`CC(=O)N1CCN(S(=O)(=O)c2ccc(C(C)C)cc2)C(C(=O)NCc2ccc(Cl)cc2Cl)C1` (stereo not drawn) [Example 101, 4-acetyl-1-(4-isopropyl-benzenesulfonyl)-piperazine-2-carboxylic acid 2,4-dichloro-benzylamide] showed an IC50 [1, 3] greater than 1 µM and an IC50 [2, 4] greater than 1 µM.
In the case of `COC(=O)CCC(=O)NCC(=O)N1CCN(S(=O)(=O)c2ccc(C(F)(F)F)cc2)[C@@H](C(=O)NCc2ccc(C(C)C)cc2)C1` [Example 252, N-{2-[(R)-3-(4-isopropyl-benzylcarbamoyl)-4-(4-trifluoromethyl-benzenesulfonyl)-piperazin-1-yl]-2-oxo-ethyl}-succinamic acid methyl ester], the IC50 [1, 3] is reported as 0.1 to 1 µM and the IC50 [2, 4] is reported as 0.1 to 1 µM.
`CC(=O)N1CCN(S(=O)(=O)c2ccc(N(C)C)cc2)C(C(=O)NCc2ccc(C(F)(F)F)cc2)C1` (stereo not drawn) [Example 92, 4-acetyl-1-(4-dimethylamino-benzenesulfonyl)-piperazine-2-carboxylic acid 4-trifluoromethyl-benzylamide] was tested, and the IC50 [1, 3] was greater than 1 µM and the IC50 [2, 4] was greater than 1 µM.
`COc1cccc(CC(=O)N2CCN(S(=O)(=O)c3ccc(C(F)(F)F)cc3)[C@@H](C(=O)NCc3ccc(C(C)C)cc3)C2)c1` [Example 268, (R)-4-[2-(3-methoxy-phenyl)-acetyl]-1-(4-trifluoromethyl-benzenesulfonyl)-piperazine-2-carboxylic acid 4-isopropyl-benzylamide] gave an IC50 [1, 3] of 0.1 to 1 µM and an IC50 [2, 4] greater than 1 µM.
`CN(C)c1ccc(CNC(=O)[C@H]2CN(C(=O)CN3CCOCC3)CCN2S(=O)(=O)c2ccc(I)cc2)cc1` [Example 160, (R)-1-(4-iodo-benzenesulfonyl)-4-(2-morpholin-4-yl-acetyl)-piperazine-2-carboxylic acid 4-dimethylamino-benzylamide] was tested, and the IC50 [1, 3] was 0.1 to 1 µM and the IC50 [2, 4] was 0.1 to 1 µM.
With `COC(=O)CCc1cc(S(=O)(=O)N2CCN(C(C)=O)C[C@@H]2C(=O)NCc2ccc(C(C)C)cc2)ccc1OC` [Example 218, 3-{5-[(R)-4-acetyl-2-(4-isopropyl-benzylcarbamoyl)-piperazine-1-sulfonyl]-2-methoxy-phenyl}-propionic acid methyl ester] the IC50 [1, 3] was 0.1 to 1 µM and the IC50 [2, 4] was 0.1 to 1 µM.
`CCCc1ccc(CNC(=O)[C@H]2CN(c3nc4c(C(=O)OCC)nncc4s3)CCN2S(=O)(=O)c2ccc(CC)cc2)cc1` [Example 891, 2-[(R)-4-(4-ethyl-benzenesulfonyl)-3-(4-propyl-benzylcarbamoyl)-piperazin-1-yl]-thiazolo[4,5-d]pyridazine-4-carboxylic acid ethyl ester] showed an IC50 [1, 5] of less than 0.1 µM and an IC50 [2, 6] of less than 0.1 µM.
`CCCc1ccc(CNC(=O)[C@H]2CN(c3cnc(C(=O)O)cn3)CCN2S(=O)(=O)c2ccc(CC)cc2)cc1` [Example 415, (R)-4-(4-ethyl-benzenesulfonyl)-3-(4-propyl-benzylcarbamoyl)-3,4,5,6-tetrahydro-2H-[1,2′]bipyrazinyl-5′-carboxylic acid] gave an IC50 [1, 3] of less than 0.1 µM and an IC50 [2, 4] of less than 0.1 µM.
`CC(=O)N1CCN(S(=O)(=O)c2ccc(C(C)C)cc2)[C@H](C(=O)NCc2ccc(C(F)(F)F)cc2)C1` [Example 1117, (S)-4-acetyl-1-(4-isopropyl-benzenesulfonyl)-piperazine-2-carboxylic acid 4-trifluoromethyl-benzylamide] gave an IC50 [1, 5] greater than 1 µM and an IC50 [2, 6] greater than 1 µM.
For `CC(=O)N1CCN(S(=O)(=O)c2ccc(C(C)C)cc2)C(C(=O)NCc2ccc(N(C)CCO)cc2)C1` (stereo not drawn) [Example 181, 4-acetyl-1-(4-isopropyl-benzenesulfonyl)-piperazine-2-carboxylic acid 4-[(2-hydroxy-ethyl)-methyl-amino]-benzylamide], the IC50 [1, 3] was greater than 1 µM and the IC50 [2, 4] was greater than 1 µM.
For `O=C(NCc1ccc(OC(F)(F)F)cc1)[C@H]1CN(c2nc3nc(C4CC4)ncc3s2)CCN1S(=O)(=O)c1ccc(C2CC2)cc1` [Example 1099, (R)-1-(4-cyclopropyl-benzenesulfonyl)-4-(5-cyclopropyl-thiazolo [4,5-d]pyrimidin-2-yl)-piperazine-2-carboxylic acid 4-trifluoromethoxy-benzylamide], the IC50 [1, 5] was less than 0.1 µM and the IC50 [2, 6] was less than 0.1 µM.
For `CCc1ncc2sc(N3CCN(S(=O)(=O)c4ccc(OC(F)(F)F)cc4)[C@@H](C(=O)NCc4ccc(OC(F)(F)F)cc4)C3)nc2n1` [Example 949, (R)-4-(5-ethyl-thiazolo[4,5-d]pyrimidin-2-yl)-1-(4-trifluoromethoxy-benzenesulfonyl)-piperazine-2-carboxylic acid 4-trifluoromethoxy-benzylamide], the IC50 [1, 5] was less than 0.1 µM and the IC50 [2, 6] was less than 0.1 µM.
With `CC(C)c1ccc(CNC(=O)[C@H]2CN(c3cc(C(=O)O)[nH]n3)CCN2S(=O)(=O)c2ccc(C(F)(F)F)cc2)cc1` [Example 426, 5-[(R)-3-(4-isopropyl-benzylcarbamoyl)-4-(4-trifluoromethyl-benzenesulfonyl)-piperazin-1-yl]-2H-pyrazole-3-carboxylic acid] the IC50 [1, 3] was 0.1 to 1 µM and the IC50 [2, 4] was greater than 1 µM.
In the case of `CC(=O)N1CCN(S(=O)(=O)c2ccc(C(C)C)cc2)C(C(=O)NCc2ccc(N)cc2)C1` (stereo not drawn) [Example 90, 4-acetyl-1-(4-isopropyl-benzenesulfonyl)-piperazine-2-carboxylic acid 4-amino-benzylamide], the IC50 [1, 3] is reported as greater than 1 µM and the IC50 [2, 4] is reported as greater than 1 µM.
For `CCC(C)(C)c1ccc(CNC(=O)[C@H]2CN(c3nc(Cl)c(C(=O)O)s3)CCN2S(=O)(=O)c2ccc(OC(F)(F)F)cc2)cc1` [Example 890, 4-chloro-2-[(R)-3-[4-(1,1-dimethyl-propyl)-benzylcarbamoyl]-4-(4-trifluoromethoxy-benzenesulfonyl)-piperazin-1-yl]-thiazole-5-carboxylic acid], the IC50 [1, 5] was less than 0.1 µM and the IC50 [2, 6] was less than 0.1 µM.
